Source: patent publication US20080009418A1, “Selective Inhibitors” (Alchemia LTD., priority 2004, published 2008)

Tests used:
[1] = target: T1, Human Melanocortin (MC3) (Homo sapiens, UniProt P41968); test: Radioligand binding, human melanocortin MC3 membranes, FlashPlate, [125I]-NDP-αMSH; conditions: compound at 10 μM, [125I]-NDP-αMSH
T1 construct: purchased Perkin Elmer Biosignal
In short: (§1)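 Cloned human receptor membranes were coated onto FlashPlate wells and incubated with radioligand and compound (added from a 0.5 mM DMSO daughter plate) for 1 hour at room temperature in the dark. Scintillation counting gave percent inhibition, with DMSO defining total and reference ligand defining non-specific binding.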

[2] = target: T2, Human neurokinin (NK1) (Homo sapiens, UniProt P25103); test: Radioligand binding, human neurokinin NK1 membranes, filtration, [125I]-Substance P; conditions: compound at 10 μM, [125I]-Substance P
T2 construct: purchased Perkin Elmer Biosignal
In short: (§2)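 Membranes from cloned human receptors were incubated with compound and radioligand for 1 hour at room temperature. Bound ligand was collected on 0.3% PEI-soaked filters, washed with cold 50 mM Tris-HCl pH 7.4, and counted by scintillation. Percent inhibition was computed against DMSO totals and reference-ligand nonspecific wells.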

[3] = target: T3, Human opioid (ORL1) (Homo sapiens, UniProt P41146); test: Radioligand binding, human opioid ORL1 membranes, FlashPlate, [125I]-Nociceptin; conditions: compound at 10 μM, [125I]-Nociceptin
T3 construct: purchased Perkin Elmer Biosignal
In short: as §1

[4] = target: T4, Human melanocortin (MC5) (Homo sapiens, UniProt P33032); test: Radioligand binding, human melanocortin MC5 membranes, FlashPlate, [125I]-NDP-αMSH; conditions: compound at 10 μM, [125I]-NDP-αMSH
T4 construct: purchased Perkin Elmer Biosignal
In short: as §1

[5] = target: T5, Mouse urotensin (mUR2) (Mus musculus, UniProt Q8VIH9); test: Radioligand binding, mouse urotensin mUR2 membranes, FlashPlate, [125I]-Urotensin II; conditions: compound at 10 μM, [125I]-Urotensin II
T5 construct: purchased Perkin Elmer Biosignal
T5 sequence (Q8VIH9 1-385): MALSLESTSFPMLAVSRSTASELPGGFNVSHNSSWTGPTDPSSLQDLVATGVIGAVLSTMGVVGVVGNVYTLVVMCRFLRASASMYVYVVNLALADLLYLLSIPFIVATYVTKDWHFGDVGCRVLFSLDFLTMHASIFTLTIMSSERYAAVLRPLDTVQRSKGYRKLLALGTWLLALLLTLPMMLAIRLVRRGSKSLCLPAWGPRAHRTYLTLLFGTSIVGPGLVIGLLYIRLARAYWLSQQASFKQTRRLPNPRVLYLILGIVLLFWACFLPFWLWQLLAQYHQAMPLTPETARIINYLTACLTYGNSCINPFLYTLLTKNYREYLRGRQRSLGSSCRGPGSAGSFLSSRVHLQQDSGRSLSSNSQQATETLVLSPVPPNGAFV
In short: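 Cloned mouse urotensin (mUR2) receptor membranes from Perkin Elmer Biosignal were immobilized in FlashPlate microplates using a proprietary coating. Each well got 19.5 μl buffer, then 0.5 μl of DMSO, reference ligand, or compound. Adding 5 μl of [125I]-Urotensin II, diluted to 5× final concentration in binding buffer, started binding. Plates were sealed with TopSeal-A and incubated 1 hour at room temperature in the dark. Wells were counted for 30 seconds each on a TopCount after a 60-second delay, and percentage inhibition was calculated.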

[6] = target: T6, Human δ-opioid (DOP) (Homo sapiens, UniProt P41143); test: Radioligand binding, human δ-opioid (DOP) membranes, FlashPlate, [3H]-Bremazocine; conditions: compound at 10 μM, [3H]-Bremazocine
T6 construct: purchased Perkin Elmer Biosignal
In short: as §1

[7] = target: T7, Human Melanocortin (MC4) (Homo sapiens, UniProt P32245); test: Radioligand binding, human melanocortin MC4 membranes, FlashPlate, [125I]-NDP-αMSH; conditions: compound at 10 μM, [125I]-NDP-αMSH
T7 construct: purchased Perkin Elmer Biosignal
In short: as §1

[8] = target: T8, Human κ-Opioid (KOP) (Homo sapiens, UniProt P41145); test: Radioligand binding, human κ-opioid (KOP) membranes, filtration, [3H]-Diprenorphine; conditions: compound at 10 μM, [3H]-Diprenorphine
T8 construct: purchased Perkin Elmer Biosignal
In short: as §2

[9] = target: T9, Human neuropeptide Y (NPY-Y1) (Homo sapiens, UniProt P25929); test: Radioligand binding, human neuropeptide Y NPY-Y1 membranes, FlashPlate, [125I]-PYY; conditions: compound at 10 μM, [125I]-PYY
T9 construct: purchased Perkin Elmer Biosignal
T9 sequence (P25929 1-384): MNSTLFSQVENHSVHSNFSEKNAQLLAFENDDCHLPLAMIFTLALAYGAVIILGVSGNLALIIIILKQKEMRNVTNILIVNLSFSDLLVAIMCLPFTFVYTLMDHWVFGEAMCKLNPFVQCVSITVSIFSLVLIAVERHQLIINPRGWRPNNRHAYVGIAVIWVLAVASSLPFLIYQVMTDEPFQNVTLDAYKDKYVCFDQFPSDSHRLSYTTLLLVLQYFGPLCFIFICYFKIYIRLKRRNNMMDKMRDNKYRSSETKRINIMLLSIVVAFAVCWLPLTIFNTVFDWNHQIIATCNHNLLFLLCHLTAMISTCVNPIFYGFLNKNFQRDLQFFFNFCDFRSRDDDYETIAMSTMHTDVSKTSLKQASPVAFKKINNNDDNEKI
In short: as §1

[10] = target: T10, Human μ-opioid (MOP) (Homo sapiens, UniProt P35372); test: Radioligand binding, human μ-opioid (MOP) membranes, FlashPlate, [3H]-Naloxone; conditions: compound at 10 μM, [3H]-Naloxone
T10 construct: purchased Perkin Elmer Biosignal
In short: as §1

[11] = target: T11, Human melanin-concentrating hormone (MCH1) (Homo sapiens, UniProt Q99705); test: Radioligand binding, human melanin-concentrating hormone MCH1 membranes, FlashPlate, [125I]-S36057; conditions: compound at 10 μM
T11 construct: purchased Perkin Elmer Biosignal
In short: as §1

[12] = [125I]-S36057, human MCH1 membranes

T8 sequence (P41145 whole entry): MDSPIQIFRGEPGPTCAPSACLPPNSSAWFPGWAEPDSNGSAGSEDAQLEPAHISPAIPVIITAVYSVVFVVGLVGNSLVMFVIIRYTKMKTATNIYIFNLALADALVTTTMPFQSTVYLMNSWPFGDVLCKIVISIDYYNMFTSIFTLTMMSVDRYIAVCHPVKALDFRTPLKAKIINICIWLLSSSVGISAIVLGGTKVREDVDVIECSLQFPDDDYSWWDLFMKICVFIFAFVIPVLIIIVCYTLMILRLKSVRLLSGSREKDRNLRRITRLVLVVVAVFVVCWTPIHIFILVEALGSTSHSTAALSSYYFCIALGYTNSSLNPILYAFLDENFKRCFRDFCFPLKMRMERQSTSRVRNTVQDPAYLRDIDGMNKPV
T10 sequence (P35372 whole entry): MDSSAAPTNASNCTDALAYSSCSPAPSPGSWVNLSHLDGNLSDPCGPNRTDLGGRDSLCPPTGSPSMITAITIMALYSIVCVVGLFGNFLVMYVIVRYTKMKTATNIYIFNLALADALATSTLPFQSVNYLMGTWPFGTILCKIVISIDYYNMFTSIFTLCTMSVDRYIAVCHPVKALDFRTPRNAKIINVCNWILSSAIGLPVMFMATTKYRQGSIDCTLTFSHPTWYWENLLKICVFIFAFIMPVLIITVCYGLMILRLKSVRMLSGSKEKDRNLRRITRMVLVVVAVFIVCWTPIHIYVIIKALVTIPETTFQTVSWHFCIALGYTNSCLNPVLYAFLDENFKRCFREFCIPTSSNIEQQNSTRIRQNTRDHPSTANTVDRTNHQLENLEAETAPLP
T7 sequence (P32245 whole entry): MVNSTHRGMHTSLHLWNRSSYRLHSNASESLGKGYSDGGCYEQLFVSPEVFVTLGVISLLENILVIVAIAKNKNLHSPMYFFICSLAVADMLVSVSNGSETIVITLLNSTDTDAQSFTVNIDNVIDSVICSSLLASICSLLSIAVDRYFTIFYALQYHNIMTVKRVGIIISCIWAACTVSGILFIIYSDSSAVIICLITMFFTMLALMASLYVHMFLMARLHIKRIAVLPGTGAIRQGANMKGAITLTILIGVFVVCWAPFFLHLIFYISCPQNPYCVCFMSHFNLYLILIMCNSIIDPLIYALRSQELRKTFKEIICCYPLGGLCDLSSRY
T1 sequence (P41968 whole entry): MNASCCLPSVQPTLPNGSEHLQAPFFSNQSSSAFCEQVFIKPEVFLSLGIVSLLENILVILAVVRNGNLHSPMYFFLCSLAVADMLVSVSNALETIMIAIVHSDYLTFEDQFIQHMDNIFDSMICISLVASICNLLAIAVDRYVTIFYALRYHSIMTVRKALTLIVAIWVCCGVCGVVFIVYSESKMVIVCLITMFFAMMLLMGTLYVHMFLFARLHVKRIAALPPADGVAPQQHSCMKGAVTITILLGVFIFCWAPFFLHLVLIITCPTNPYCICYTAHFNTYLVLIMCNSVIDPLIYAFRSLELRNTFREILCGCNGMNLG
T11 sequence (Q99705 whole entry): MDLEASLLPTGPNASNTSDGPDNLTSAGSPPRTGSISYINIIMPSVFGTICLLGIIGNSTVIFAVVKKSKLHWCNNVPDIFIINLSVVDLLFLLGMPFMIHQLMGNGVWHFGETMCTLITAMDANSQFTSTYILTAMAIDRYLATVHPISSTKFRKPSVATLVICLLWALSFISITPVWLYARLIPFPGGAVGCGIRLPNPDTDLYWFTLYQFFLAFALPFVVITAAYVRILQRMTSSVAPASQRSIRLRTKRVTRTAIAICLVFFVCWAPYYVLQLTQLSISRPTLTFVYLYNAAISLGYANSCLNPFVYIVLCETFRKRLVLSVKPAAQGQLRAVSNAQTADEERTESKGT
T3 sequence (P41146 whole entry): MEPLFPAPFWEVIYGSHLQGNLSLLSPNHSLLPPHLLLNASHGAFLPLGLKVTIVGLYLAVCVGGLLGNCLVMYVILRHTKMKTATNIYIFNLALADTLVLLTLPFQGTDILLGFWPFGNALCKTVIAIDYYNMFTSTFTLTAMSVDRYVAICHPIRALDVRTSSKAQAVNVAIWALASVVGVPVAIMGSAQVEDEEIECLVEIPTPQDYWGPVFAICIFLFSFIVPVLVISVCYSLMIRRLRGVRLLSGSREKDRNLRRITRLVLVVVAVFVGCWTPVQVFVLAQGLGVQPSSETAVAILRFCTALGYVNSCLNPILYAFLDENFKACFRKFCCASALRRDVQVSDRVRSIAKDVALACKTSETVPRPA
T2 sequence (P25103 whole entry): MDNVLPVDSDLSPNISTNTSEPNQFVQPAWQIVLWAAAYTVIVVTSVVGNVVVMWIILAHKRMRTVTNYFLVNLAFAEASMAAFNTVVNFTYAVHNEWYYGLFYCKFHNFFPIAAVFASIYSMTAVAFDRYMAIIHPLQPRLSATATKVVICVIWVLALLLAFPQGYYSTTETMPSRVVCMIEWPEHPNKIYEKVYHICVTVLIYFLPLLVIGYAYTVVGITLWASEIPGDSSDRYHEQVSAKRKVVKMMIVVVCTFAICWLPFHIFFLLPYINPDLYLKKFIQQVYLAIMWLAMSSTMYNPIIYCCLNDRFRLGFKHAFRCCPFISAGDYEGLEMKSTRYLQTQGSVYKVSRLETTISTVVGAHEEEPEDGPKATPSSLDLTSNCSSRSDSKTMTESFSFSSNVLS
T4 sequence (P33032 whole entry): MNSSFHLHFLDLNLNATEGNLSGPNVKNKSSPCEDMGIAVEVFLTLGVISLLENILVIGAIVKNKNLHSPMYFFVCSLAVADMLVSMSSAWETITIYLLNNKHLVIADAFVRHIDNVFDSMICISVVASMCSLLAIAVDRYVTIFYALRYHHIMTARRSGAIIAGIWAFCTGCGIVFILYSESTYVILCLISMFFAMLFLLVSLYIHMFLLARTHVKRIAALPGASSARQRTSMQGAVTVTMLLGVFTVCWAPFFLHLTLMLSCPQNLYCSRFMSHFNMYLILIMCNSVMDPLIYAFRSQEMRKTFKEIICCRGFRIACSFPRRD
T6 sequence (P41143 whole entry): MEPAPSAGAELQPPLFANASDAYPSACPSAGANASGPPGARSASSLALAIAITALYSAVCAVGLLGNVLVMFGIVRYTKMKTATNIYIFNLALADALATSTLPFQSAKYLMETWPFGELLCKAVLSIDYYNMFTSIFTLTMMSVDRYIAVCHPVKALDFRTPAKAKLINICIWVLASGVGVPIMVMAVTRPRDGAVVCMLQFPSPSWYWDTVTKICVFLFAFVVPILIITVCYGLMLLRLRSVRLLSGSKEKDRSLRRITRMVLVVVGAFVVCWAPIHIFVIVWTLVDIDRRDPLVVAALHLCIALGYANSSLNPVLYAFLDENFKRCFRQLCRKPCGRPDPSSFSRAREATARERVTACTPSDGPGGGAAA

Structure (SMILES)	A8: inhibition of radioligand binding ([2]; human NK1 membranes)	A10: inhibition of radioligand binding ([3]; human ORL1 membranes)	A5: inhibition of radioligand binding ([4]; human MC5 membranes)	A11: inhibition of radioligand binding ([5]; mouse mUR2 membranes)	A1: inhibition of radioligand binding ([6]; human DOP membranes)	A2: inhibition of radioligand binding ([8]; human KOP membranes)	A9: inhibition of radioligand binding ([9]; human NPY-Y1 membranes)	A7: inhibition of radioligand binding ([10]; human MOP membranes)	A6: inhibition of radioligand binding [11, 12]	A3: inhibition of radioligand binding ([1]; FlashPlate)	A8: inhibition of radioligand binding ([2]; filtration)	A10: inhibition of radioligand binding ([3]; FlashPlate)	A5: inhibition of radioligand binding ([4]; FlashPlate)	A11: inhibition of radioligand binding ([5]; FlashPlate)	A1: inhibition of radioligand binding ([6]; FlashPlate)	A4: inhibition of radioligand binding ([7]; FlashPlate)	A2: inhibition of radioligand binding ([8]; filtration)	A9: inhibition of radioligand binding ([9]; FlashPlate)	A7: inhibition of radioligand binding ([10]; FlashPlate)	A6: inhibition of radioligand binding ([11]; [125I]-S36057, FlashPlate)	other results
NCCC(=O)N[C@H]1C(OCc2ccc3ccccc3c2)O[C@H](COCc2ccc(Cl)cc2)[C@@H](O)[C@@H]1OCc1ccc(Cl)cc1 (stereo partly shown) [compound 440]	+ (“+” indicates greater than 50% inhibition at 10 μM)	− (“−” indicates less than 50% inhibition at 10 μM)	+ (“+” indicates greater than 50% inhibition at 10 μM)	− (“−” indicates less than 50% inhibition at 10 μM)	− (“−” indicates less than 50% inhibition at 10 μM)	− (“−” indicates less than 50% inhibition at 10 μM)	− (“−” indicates less than 50% inhibition at 10 μM)	− (“−” indicates less than 50% inhibition at 10 μM)	+ (“+” indicates greater than 50% inhibition at 10 μM)												A3: inhibition of radioligand binding ([1]; human MC3 membranes, 10 µM): − (“−” indicates less than 50% inhibition at 10 μM); A4: inhibition of radioligand binding ([7]; human MC4 membranes, 10 µM): − (“−” indicates less than 50% inhibition at 10 μM)
CSC1OC(COCc2cccc(N)c2)C(O)C(OCc2ccc(Cl)cc2)C1NC(=O)Cc1ccccc1 (stereo not shown) [compound 333]																					A3: inhibition of radioligand binding, human melanocortin (MC3) [1]: − (“−” indicates less than 50% inhibition at 10 μM); A8: inhibition of radioligand binding, human neurokinin (NK1) [2]: + (“+” indicates greater than 50% inhibition at 10 μM); A10: inhibition of radioligand binding, human opioid (ORL1) [3]: − (“−” indicates less than 50% inhibition at 10 μM); A5: inhibition of radioligand binding, human melanocortin (MC5) [4]: − (“−” indicates less than 50% inhibition at 10 μM); A11: inhibition of radioligand binding, mouse urotensin (mUR2) [5]: − (“−” indicates less than 50% inhibition at 10 μM); A1: inhibition of radioligand binding, human δ-opioid (DOP) [6]: − (“−” indicates less than 50% inhibition at 10 μM); A4: inhibition of radioligand binding, human melanocortin (MC4) [7]: − (“−” indicates less than 50% inhibition at 10 μM); A2: inhibition of radioligand binding, human κ-opioid (KOP) [8]: − (“−” indicates less than 50% inhibition at 10 μM); A9: inhibition of radioligand binding, human neuropeptide Y (NPY-Y1) [9]: − (“−” indicates less than 50% inhibition at 10 μM); A7: inhibition of radioligand binding, human μ-opioid (MOP) [10]: − (“−” indicates less than 50% inhibition at 10 μM); A6: inhibition of radioligand binding, human melanin-concentrating hormone (MCH1) ([11]; [125I]-S36057): − (“−” indicates less than 50% inhibition at 10 μM)
NCCC(=O)N[C@H]1C(OCc2ccc3ccccc3c2)O[C@H](COCc2ccc3ccccc3c2)[C@@H](O)[C@@H]1OCc1ccc2ccccc2c1 (stereo partly shown) [compound 443]	+ (“+” indicates greater than 50% inhibition at 10 μM)	+ (“+” indicates greater than 50% inhibition at 10 μM)	+ (“+” indicates greater than 50% inhibition at 10 μM)	− (“−” indicates less than 50% inhibition at 10 μM)	− (“−” indicates less than 50% inhibition at 10 μM)	− (“−” indicates less than 50% inhibition at 10 μM)	− (“−” indicates less than 50% inhibition at 10 μM)	− (“−” indicates less than 50% inhibition at 10 μM)	+ (“+” indicates greater than 50% inhibition at 10 μM)												A3: inhibition of radioligand binding ([1]; human MC3 membranes): + (“+” indicates greater than 50% inhibition at 10 μM); A4: inhibition of radioligand binding ([7]; human MC4 membranes): + (“+” indicates greater than 50% inhibition at 10 μM)
COCC1OC(OCc2ccc3ccccc3c2)C(NC(=O)CCNC(=N)N)C(OCc2ccc(-c3ccccc3)cc2)C1O (stereo not shown) [compound 244]										+ (“+” indicates greater than 50% inhibition at 10 μM)	+ (“+” indicates greater than 50% inhibition at 10 μM)	− (“−” indicates less than 50% inhibition at 10 μM)	+ (“+” indicates greater than 50% inhibition at 10 μM)	− (“−” indicates less than 50% inhibition at 10 μM)	− (“−” indicates less than 50% inhibition at 10 μM)	+ (“+” indicates greater than 50% inhibition at 10 μM)	− (“−” indicates less than 50% inhibition at 10 μM)	+ (“+” indicates greater than 50% inhibition at 10 μM)	− (“−” indicates less than 50% inhibition at 10 μM)	+ (“+” indicates greater than 50% inhibition at 10 μM)	
COCC1OC(OCc2ccc3ccccc3c2)C(NC(=O)CCCN)C(OCc2ccccc2)C1O (stereo not shown) [compound 233]										− (“−” indicates less than 50% inhibition at 10 μM)	+ (“+” indicates greater than 50% inhibition at 10 μM)	− (“−” indicates less than 50% inhibition at 10 μM)	− (“−” indicates less than 50% inhibition at 10 μM)	− (“−” indicates less than 50% inhibition at 10 μM)	− (“−” indicates less than 50% inhibition at 10 μM)	− (“−” indicates less than 50% inhibition at 10 μM)	− (“−” indicates less than 50% inhibition at 10 μM)	− (“−” indicates less than 50% inhibition at 10 μM)	− (“−” indicates less than 50% inhibition at 10 μM)	− (“−” indicates less than 50% inhibition at 10 μM)	
